# Patent US8044094B2, “Agents for preventing and treating disorders connected to impaired neurotransmission” (DSM IP Assets B.V., priority 2004, dated 2011)
# Tests used:
# MAO-B = biological target: T1, MAO-B (Homo sapiens, UniProt P27338); test: MAO-B inhibition, Amplex Red Monoamine Oxidase Assay Kit, colorimetric; assay type: biochemical
# T1 construct: purchased Sigma M7441
# T1 sequence (P27338 1-520): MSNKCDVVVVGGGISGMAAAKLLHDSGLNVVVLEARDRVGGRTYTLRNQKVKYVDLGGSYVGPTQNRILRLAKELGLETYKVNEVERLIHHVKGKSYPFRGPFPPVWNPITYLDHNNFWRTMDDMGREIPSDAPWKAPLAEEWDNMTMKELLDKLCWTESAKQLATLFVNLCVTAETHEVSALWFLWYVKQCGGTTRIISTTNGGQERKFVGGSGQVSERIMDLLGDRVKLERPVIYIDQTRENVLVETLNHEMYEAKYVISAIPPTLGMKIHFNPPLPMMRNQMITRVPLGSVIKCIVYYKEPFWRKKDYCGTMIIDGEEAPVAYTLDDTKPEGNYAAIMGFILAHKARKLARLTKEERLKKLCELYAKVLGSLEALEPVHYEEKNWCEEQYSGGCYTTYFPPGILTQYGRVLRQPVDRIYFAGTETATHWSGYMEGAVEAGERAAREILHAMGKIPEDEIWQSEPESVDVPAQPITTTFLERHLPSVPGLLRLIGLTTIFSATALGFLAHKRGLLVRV
# Protocol: From a stock solution of 0.0405 g of racemic obliquin (92.5%; equal to 37.5 mg of pure compound) in 750 μl of dimethylsulfoxide (DMSO), working solutions were prepared with a concentration of obliquin of 4. 10^−4M in reaction buffer (0.05 M sodium phosphate, pH 7.4, 0.2% DMSO). The final concentrations of obliquin in the test system were 10^−4 M, 10^−5 M, 10^−6 M, 10^−7 M.
# For determining the inhibition of monoaminoxidases' activity, the Amplex Red Monoamine Oxidase Assay Kit (Molecular Probes Nr._A-12214, Colorimetric version) was conducted according to manufacturers instructions.
# As substrates for MAO-A enzyme (Sigma Nr. M7316) p-tyramine and as substrate for MAO-B enzyme (Sigma Nr. M7441) benzylamine were used. The concentration of MAO-A enzyme was 8 Units/ml, and that of MAO-B 4 Units/ml in the working solution.
# MAO-A and MAO-B Assay, Colorimetric Version:
# For the assay, 50 μl of each working solution (see above) were used. As control solution, the obliquin containing working solution was replaced by 50 μl of the reaction buffer.
# 50 μl of diluted MAO-A with a final concentration of 2 Units/ml and 50 μl of diluted MAO-B with a final concentration of 1 Unit/ml, respectively, were added.
# 100 μl of the Amplex solution containing horseradish peroxidase (2 U/ml) and the substrate tyramine (for MAO-A) or the substrate benzylamine (for MAO-B) were added.
# To allow a subtraction of the background absorption a mixture of 100 μl of the Amplex solution and 100 μl of the reaction buffer was measured as a “blank”.
# The samples were incubated at room temperature in the dark for 1 hour, and then the extinction at 535 nm determined in a Softmax Microplate photometer (Molecular Device).
# [1] = biological target: human serotonin re-uptake transporter (hSERT) (Homo sapiens, UniProt P31645); test: Labeled citalopram displacement from hSERT containing membranes (SPA); assay type: binding; settings: hSERT containing membranes; Ki from IC50 by Cheng-Prusoff; 3.3 nM (3H) citalopram; read-out: Inhibition constant Ki for tritiated citalopram displacement
# Chain of human serotonin re-uptake transporter (hSERT) (P31645 whole entry): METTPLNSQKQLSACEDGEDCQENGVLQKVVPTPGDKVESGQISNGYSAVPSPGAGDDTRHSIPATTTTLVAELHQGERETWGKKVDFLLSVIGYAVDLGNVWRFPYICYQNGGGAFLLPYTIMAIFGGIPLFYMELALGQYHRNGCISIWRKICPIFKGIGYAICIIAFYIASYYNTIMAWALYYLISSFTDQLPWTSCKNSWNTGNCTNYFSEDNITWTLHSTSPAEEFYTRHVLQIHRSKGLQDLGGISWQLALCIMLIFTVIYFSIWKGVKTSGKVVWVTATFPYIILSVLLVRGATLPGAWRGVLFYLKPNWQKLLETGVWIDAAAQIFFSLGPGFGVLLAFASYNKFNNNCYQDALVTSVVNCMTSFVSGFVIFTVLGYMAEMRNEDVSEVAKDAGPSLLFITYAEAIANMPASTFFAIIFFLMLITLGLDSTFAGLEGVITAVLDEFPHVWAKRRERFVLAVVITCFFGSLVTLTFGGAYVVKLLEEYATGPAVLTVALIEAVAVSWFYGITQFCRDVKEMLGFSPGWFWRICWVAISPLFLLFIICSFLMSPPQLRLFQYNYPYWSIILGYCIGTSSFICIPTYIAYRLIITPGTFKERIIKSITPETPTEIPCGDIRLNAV
# Protocol: Membranes containing hSERT were prepared from the above cell line according to Galli et al, Journal of Experimental Biology 1995, 198, 2197-2212. 3 μg of membrane protein and 0.8 mg of wheat germ aglutinin coated SPA® (scintillation proximity assay) beads (Amersham Biosciences GE Healthcare, Slough, UK) per data point were mixed with radio-labeled (3H) citalopram (Amersham Biosciences GE Healthcare, Slough, UK) until a final concentration of 3.3 nM in 50 mM Tris-HCl, 300 mM NaCl (pH 7.4). After incubation for 18 hours at room temperature, the bound citalopram was quantified by liquid scintillation counting.
# The effect of the coumarin ethers of formula I on the serotonin uptake and the citalopram binding was determined by its inclusion in the assay at a range of concentrations between 0.03 and 100 μM for 10 minutes prior to and during the addition of (3H) serotonin/citalopram. Serotonin uptake via the transporter and citalopram binding were both inhibited by the coumarin ethers of formula I in a dose dependent manner. The calculated inhibition constants Ki, derived from the measured IC50 using the Cheng—Prusoff equation (Y. C. Cheng, W. H. Prusoff, Biochem. Pharmacol. 1973, 22, p. 3099-3108), for inhibition of serotonin uptake and citalopram binding by coumarin ethers of the formula I are shown in Table 1.
compound,measurement,setting,value
"C=C(C)[C@H]1COc2cc3oc(=O)ccc3cc2O1 (racemic) [Obliquin, obliquin]",MAO inhibition specificity MAO-B versus MAO-A,MAO-B; compared with MAO-A,higher specificity for MAO-B than for MAO-A
same,inhibition at 0.1 µM,"MAO-B; obliquin 1 x 10^−7 M, substrate benzylamine",8.3%
same,inhibition at 1 µM,"MAO-B; obliquin 10 x 10^−7 M, substrate benzylamine",33.3%
same,inhibition at 10 µM,"MAO-B; obliquin 100 x 10^−7 M, substrate benzylamine",76.9%
same,inhibition at 100 µM,"MAO-B; obliquin 1000 x 10^−7 M, substrate benzylamine",91.5%
same,Ki,[1],6.1 µM
